Data on six molecules can be found in article PMC10218303, “Novel Polymyxin-Inspired Peptidomimetics Targeting the SARS-CoV-2 Spike:hACE2 Interface” (International Journal of Molecular Sciences, 2023).

Bridge positions count the residues as written; N and C are the ends. Square brackets hold non-standard residues; d marks the D form. Peptide text beside a SMILES is read from it. Dab = NCC[C@H](N)C(=O)O

In data set [1] the test system is SARS-CoV-2 (strain 20A.EU2). As to conditions: strain 20A.EU2, 2 h.
Data set [2] deals with SARS-CoV-2 (strain Delta). As to conditions: for IC50: strain Delta, 2 h.
Data set [3] is described as follows: in vitro. As to conditions: human.
Data set [4] in a line: in vitro. As to conditions: human. This is another data set of the same source.

As for `CC[C@H](C)[C@@H]1NC(=O)[C@@H](NC(=O)[C@H](CCN)NC(=O)[C@@H](NC(=O)[C@H](CC(C)C)NC(C)=O)[C@@H](C)O)CCNC(=O)[C@H](Cn2cc(CC(=O)N[C@@H](CCN)C(=O)N[C@H]3CCNC(=O)[C@H]([C@@H](C)O)NC(=O)[C@H](CCN)NC(=O)[C@H](Cc4c[nH]c5ccccc45)NC(=O)[C@H](CC(C)C)NC(=O)[C@@H](Cc4ccccc4)NC(=O)[C@H](Cc4ccc(O)cc4)NC3=O)nn2)NC(=O)[C@H](CCN)NC(=O)[C@H](CCN)NC(=O)[C@H](Cc2ccc(O)cc2)NC(=O)[C@@H](Cc2ccccc2)NC1=O` [dimer 3], the IC50 in data set [1] and in data set [2] was over 50 µM in each case. Also, the CC50 in “in vitro [3]” and in “in vitro [4]” was over 50 µM each time.
For the molecule `CC[C@H](C)[C@@H]1NC(=O)[C@@H](NC(=O)[C@H](CCN)NC(=O)[C@@H](NC(=O)[C@H](CC(C)C)NC(C)=O)[C@@H](C)O)CCNC(=O)[C@H](Cn2cc(CCC(=O)N[C@@H](CCN)C(=O)N[C@H]3CCNC(=O)[C@H]([C@@H](C)O)NC(=O)[C@H](CCN)NC(=O)[C@H](Cc4c[nH]c5ccccc45)NC(=O)[C@H](CC(C)C)NC(=O)[C@@H](Cc4ccccc4)NC(=O)[C@H](Cc4ccc(O)cc4)NC3=O)nn2)NC(=O)[C@H](CCN)NC(=O)[C@H](CCN)NC(=O)[C@H](Cc2ccc(O)cc2)NC(=O)[C@@H](Cc2ccccc2)NC1=O` [dimer 4], the IC50 in data set [1] and in data set [2] was over 50 µM each time. Moreover, the CC50 in the data set “in vitro [3]” and in “in vitro [4]” was over 50 µM each time.
As for `CC(=O)N[C@@H](CCC(=O)O)C(=O)N[C@H](C(=O)N[C@@H](CCN)C(=O)N[C@H]1CCNC(=O)[C@H](Cn2cc(CC(=O)N[C@@H](CC(C)C)C(=O)N[C@H]3CCNC(=O)[C@H]([C@@H](C)O)NC(=O)[C@H](CCN)NC(=O)[C@H](CCN)NC(=O)[C@H](CC(C)C)NC(=O)[C@@H](Cc4ccccc4)NC(=O)[C@H](Cc4c[nH]c5ccccc45)NC3=O)nn2)NC(=O)[C@H](CCN)NC(=O)[C@H](CCN)NC(=O)[C@H](Cc2ccc(O)cc2)NC(=O)[C@@H](Cc2ccccc2)NC(=O)[C@H](Cc2ccc(O)cc2)NC1=O)[C@@H](C)O` [dimer 7], the IC50 in data set [1] and in data set [2] was over 50 µM in each case. The “antiviral effect, in words” value in data set [2] is on record as “a hint of antiviral effect”. In addition, the CC50 in “in vitro [3]” and in “in vitro [4]” was over 50 µM each time.
Turning to `CC(=O)N[C@@H](CCC(=O)O)C(=O)N[C@H](C(=O)N[C@@H](CCN)C(=O)N[C@H]1CCNC(=O)[C@H](Cn2cc(CC(=O)N[C@@H](CCN)C(=O)N[C@H]3CCNC(=O)[C@H]([C@@H](C)O)NC(=O)[C@H](CCN)NC(=O)[C@H](Cc4c[nH]c5ccccc45)NC(=O)[C@H](CC(C)C)NC(=O)[C@@H](Cc4ccccc4)NC(=O)[C@H](Cc4c[nH]c5ccccc45)NC3=O)nn2)NC(=O)[C@H](CCN)NC(=O)[C@H](CCN)NC(=O)[C@H](CC(C)C)NC(=O)[C@@H](Cc2ccccc2)NC(=O)[C@H](Cc2ccc(O)cc2)NC1=O)[C@@H](C)O` [dimer 10], the IC50 in data set [1] and in data set [2] was over 50 µM each time. Also, the CC50 in “in vitro [3]” and in “in vitro [4]” was over 50 µM in each case.
Turning to `CC(C)C[C@@H]1NC(=O)[C@@H](Cc2ccccc2)NC(=O)[C@H](Cc2ccc(O)cc2)NC(=O)[C@@H](NC(=O)[C@@H](N)CCN)CCNC(=O)[C@H]([C@@H](C)O)NC(=O)[C@H](CCN)NC(=O)[C@H](Cc2c[nH]c3ccccc23)NC1=O` [monomer 1] (H-[Dab][Dab]Y[dF]LW[Dab]T; lactam 2-C), the IC50 in data set [1] and in data set [2] was over 50 µM in each case. In addition, the CC50 in “in vitro [3]” and in “in vitro [4]” was over 50 µM each time.
As for `CC[C@H](C)[C@@H]1NC(=O)[C@@H](NC(=O)[C@H](CCN)NC(=O)[C@@H](NC(=O)[C@H](CC(C)C)NC(C)=O)[C@@H](C)O)CCNC(=O)[C@H](Cn2cc(CC(=O)O)nn2)NC(=O)[C@H](CCN)NC(=O)[C@H](CCN)NC(=O)[C@H](Cc2ccc(O)cc2)NC(=O)[C@@H](Cc2ccccc2)NC1=O` [monomer 2], the IC50 in data set [1] and in data set [2] was over 50 µM throughout. Further, the CC50 in the data set “in vitro [3]” and in the data set “in vitro [4]” was over 50 µM throughout.
